Active and inactive are the calls of the source. The rule behind the calls is not given here.
How the values were obtained:
[1] = test system: Aspergillus fumigatus; assay: Antifungal activity against nongerminated Aspergillus fumigatus assessed as lowest drug concentration that produced short, stubby and highly branched hyphae after 48 hrs by microscopic analysis; format: functional; details: read-out: MEC
[2] = test system: Aspergillus fumigatus; assay: Antifungal activity against germinated Aspergillus fumigatus assessed as lowest drug concentration that produced short, stubby and highly branched hyphae after 48 hrs by microscopic analysis; format: functional; details: read-out: MEC
[3] = test system: Aspergillus fumigatus; assay: Ratio of log2 of MEC for germinated Aspergillus fumigatus to log2 of MEC for nongerminated Aspergillus fumigatus; format: functional
[4] = test system: Aspergillus terreus; assay: Antifungal activity against nongerminated Aspergillus terreus assessed as lowest drug concentration that produced short, stubby and highly branched hyphae after 48 hrs by microscopic analysis; format: functional; details: read-out: MEC
[5] = test system: Aspergillus terreus; assay: Antifungal activity against germinated Aspergillus terreus assessed as lowest drug concentration that produced short, stubby and highly branched hyphae after 48 hrs by microscopic analysis; format: functional; details: read-out: MEC
[6] = test system: Aspergillus terreus; assay: Ratio of log2 of MEC for germinated Aspergillus terreus to log2 of MEC for nongerminated Aspergillus terreus; format: functional
[7] = test system: Aspergillus flavus; assay: Antifungal activity against nongerminated Aspergillus flavus assessed as lowest drug concentration that produced short, stubby and highly branched hyphae after 48 hrs by microscopic analysis; format: functional; details: read-out: MEC
[8] = test system: Aspergillus flavus; assay: Antifungal activity against germinated Aspergillus flavus assessed as lowest drug concentration that produced short, stubby and highly branched hyphae after 48 hrs by microscopic analysis; format: functional; details: read-out: MEC
[9] = test system: Aspergillus flavus; assay: Ratio of log2 of MEC for germinated Aspergillus flavus to log2 of MEC for nongerminated Aspergillus flavus; format: functional
[10] = test system: Aspergillus fumigatus; assay: Effect on nongerminated Aspergillus fumigatus metabolic activity assessed as drug concentration at which fungal metabolic activity occurs after 2 hrs by XTT assay; format: functional
[11] = test system: Aspergillus fumigatus; assay: Effect on germinated Aspergillus fumigatus metabolic activity assessed as drug concentration at which fungal metabolic activity occurs after 2 hrs by XTT assay; format: functional
[12] = test system: Aspergillus fumigatus; assay: Effect on Aspergillus fumigatus metabolic activity assessed number of twofold drug dilutions required for germinated fungal metabolic activity to nongerminated fungal metabolic activity; format: functional
[13] = test system: Aspergillus terreus; assay: Effect on nongerminated Aspergillus terreus metabolic activity assessed as drug concentration at which fungal metabolic activity occurs after 2 hrs by XTT assay; format: functional
[14] = test system: Aspergillus terreus; assay: Effect on germinated Aspergillus terreus metabolic activity assessed as drug concentration at which fungal metabolic activity occurs after 2 hrs by XTT assay; format: functional
[15] = test system: Aspergillus terreus; assay: Effect on Aspergillus terreus metabolic activity assessed number of twofold drug dilutions required for germinated fungal metabolic activity to nongerminated fungal metabolic activity; format: functional
[16] = test system: Aspergillus flavus; assay: Effect on nongerminated Aspergillus flavus metabolic activity assessed as drug concentration at which fungal metabolic activity occurs after 2 hrs by XTT assay; format: functional
[17] = test system: Aspergillus flavus; assay: Effect on germinated Aspergillus flavus metabolic activity assessed as drug concentration at which fungal metabolic activity occurs after 2 hrs by XTT assay; format: functional
[18] = test system: Aspergillus flavus; assay: Effect on Aspergillus flavus metabolic activity assessed number of twofold drug dilutions required for germinated fungal metabolic activity to nongerminated fungal metabolic activity; format: functional
[19] = test system: Aspergillus fumigatus; assay: Induction of maximal metabolic inhibition in nongerminated Aspergillus fumigatus assessed as minimal metabolic activity Ymin after 2 hrs by XTT assay; format: functional; parameters: scale not given: the % may be the effect or the level left
[20] = test system: Aspergillus fumigatus; assay: Induction of maximal metabolic inhibition in germinated Aspergillus fumigatus assessed as minimal metabolic activity Ymin after 2 hrs by XTT assay; format: functional; parameters: scale not given: the % may be the effect or the level left
[21] = test system: Aspergillus terreus; assay: Induction of maximal metabolic inhibition in nongerminated Aspergillus terreus assessed as minimal metabolic activity Ymin after 2 hrs by XTT assay; format: functional; parameters: scale not given: the % may be the effect or the level left
[22] = test system: Aspergillus terreus; assay: Induction of maximal metabolic inhibition in germinated Aspergillus terreus assessed as minimal metabolic activity Ymin after 2 hrs by XTT assay; format: functional; parameters: scale not given: the % may be the effect or the level left
[23] = test system: Aspergillus flavus; assay: Induction of maximal metabolic inhibition in nongerminated Aspergillus flavus assessed as minimal metabolic activity Ymin after 2 hrs by XTT assay; format: functional; parameters: scale not given: the % may be the effect or the level left
[24] = test system: Aspergillus flavus; assay: Induction of maximal metabolic inhibition in germinated Aspergillus flavus assessed as minimal metabolic activity Ymin after 2 hrs by XTT assay; format: functional; parameters: scale not given: the % may be the effect or the level left
[25] = test system: Aspergillus fumigatus; assay: Decrease in nongerminated Aspergillus fumigatus metabolism assessed as metabolic activity at 64 ug/mL after 48 hrs by XTT assay; format: functional; parameters: scale not given: the % may be the effect or the level left
[26] = test system: Aspergillus fumigatus; assay: Decrease in germinated Aspergillus fumigatus metabolism assessed as metabolic activity at 64 ug/mL after 48 hrs by XTT assay; format: functional; parameters: scale not given: the % may be the effect or the level left
[27] = test system: Aspergillus terreus; assay: Decrease in nongerminated Aspergillus terreus metabolism assessed as metabolic activity at 64 ug/mL after 48 hrs by XTT assay; format: functional; parameters: scale not given: the % may be the effect or the level left
[28] = test system: Aspergillus terreus; assay: Decrease in germinated Aspergillus terreus metabolism assessed as metabolic activity at 64 ug/mL after 48 hrs by XTT assay; format: functional; parameters: scale not given: the % may be the effect or the level left
[29] = test system: Aspergillus flavus; assay: Decrease in nongerminated Aspergillus flavus metabolism assessed as metabolic activity at 64 ug/mL after 48 hrs by XTT assay; format: functional; parameters: scale not given: the % may be the effect or the level left
[30] = test system: Aspergillus flavus; assay: Decrease in germinated Aspergillus flavus metabolism assessed as metabolic activity at 64 ug/mL after 48 hrs by XTT assay; format: functional; parameters: scale not given: the % may be the effect or the level left
[31] = test system: Aspergillus fumigatus; assay: Decrease in nongerminated Aspergillus fumigatus metabolism assessed as metabolic activity at 128 ug/mL after 48 hrs by XTT assay; format: functional; parameters: scale not given: the % may be the effect or the level left
[32] = test system: Aspergillus fumigatus; assay: Decrease in germinated Aspergillus fumigatus metabolism assessed as metabolic activity at 128 ug/mL after 48 hrs by XTT assay; format: functional; parameters: scale not given: the % may be the effect or the level left
[33] = test system: Aspergillus terreus; assay: Decrease in nongerminated Aspergillus terreus metabolism assessed as metabolic activity at 128 ug/mL after 48 hrs by XTT assay; format: functional; parameters: scale not given: the % may be the effect or the level left
[34] = test system: Aspergillus terreus; assay: Decrease in germinated Aspergillus terreus metabolism assessed as metabolic activity at 128 ug/mL after 48 hrs by XTT assay; format: functional; parameters: scale not given: the % may be the effect or the level left
[35] = test system: Aspergillus flavus; assay: Decrease in nongerminated Aspergillus flavus metabolism assessed as metabolic activity at 128 ug/mL after 48 hrs by XTT assay; format: functional; parameters: scale not given: the % may be the effect or the level left
[36] = test system: Aspergillus flavus; assay: Decrease in germinated Aspergillus flavus metabolism assessed as metabolic activity at 128 ug/mL after 48 hrs by XTT assay; format: functional; parameters: scale not given: the % may be the effect or the level left
[37] = test system: Aspergillus fumigatus; assay: Antifungal activity against nongerminated Aspergillus fumigatus assessed as absence of visual fungal growth at 128 ug/mL; format: functional, organism-based
[38] = test system: Aspergillus fumigatus; assay: Antifungal activity against germinated Aspergillus fumigatus assessed as absence of visual fungal growth at 128 ug/mL; format: functional, organism-based
[39] = test system: Aspergillus terreus; assay: Antifungal activity against nongerminated Aspergillus terreus assessed as absence of visual fungal growth at 128 ug/mL; format: functional, organism-based
[40] = test system: Aspergillus terreus; assay: Antifungal activity against germinated Aspergillus terreus assessed as absence of visual fungal growth at 128 ug/mL; format: functional, organism-based
[41] = test system: Aspergillus flavus; assay: Antifungal activity against nongerminated Aspergillus flavus assessed as absence of visual fungal growth at 128 ug/mL; format: functional, organism-based
[42] = test system: Aspergillus flavus; assay: Antifungal activity against germinated Aspergillus flavus assessed as absence of visual fungal growth at 128 ug/mL; format: functional, organism-based

Q: CC[C@H](C)C[C@H](C)CCCCCCCCC(=O)N[C@H]1C[C@@H](O)[C@@H](NCCN)NC(=O)[C@@H]2[C@@H](O)CCN2C(=O)[C@H]([C@H](O)CCN)NC(=O)[C@H]([C@H](O)[C@@H](O)c2ccc(O)cc2)NC(=O)[C@@H]2C[C@@H](O)CN2C(=O)[C@H]([C@@H](C)O)NC1=O [CASPOFUNGIN] was tested. Which minimal effective concentration [1] did it give?
A: Its minimal effective concentration is 1 µg/mL.

Q: What about the minimal effective concentration [2] of the same compound?
A: Its minimal effective concentration is 1 µg/mL.

Q: And the Ratio [3]?
A: Its Ratio is 0.

Q: And the minimal effective concentration [4]?
A: Its minimal effective concentration is 0.5 µg/mL.

Q: What about the minimal effective concentration [5] of the same compound?
A: The minimal effective concentration was 1 µg/mL.

Q: And the Ratio [6]?
A: The Ratio was 1.

Q: What about the minimal effective concentration [7] of the same compound?
A: Its minimal effective concentration is 1 µg/mL.

Q: What about the minimal effective concentration [8] of the same compound?
A: Its minimal effective concentration is 1 µg/mL.

Q: What about the Ratio [9] of the same compound?
A: The Ratio was 0.

Q: What about the EC5 [10] of the same compound?
A: Its EC5 is 0.67 µg/mL.

Q: And the EC5 [11]?
A: Its EC5 is 1.2 µg/mL.

Q: And the Ratio [12]?
A: The Ratio was 0.96.

Q: What about the EC5 [13] of the same compound?
A: The EC5 was 0.65 µg/mL.

Q: What about the EC5 [14] of the same compound?
A: The EC5 was 1.06 µg/mL.

Q: What about the Ratio [15] of the same compound?
A: The Ratio was 1.12.

Q: What about the EC5 [16] of the same compound?
A: The EC5 was 0.64 µg/mL.

Q: And the EC5 [17]?
A: The EC5 was 0.87 µg/mL.

Q: What about the Ratio [18] of the same compound?
A: The Ratio was 0.43.

Q: And the Activity [19]?
A: The Activity was 26%.

Q: And the Activity [20]?
A: The Activity was 26%.

Q: And the Activity [21]?
A: The Activity was 34%.

Q: What about the Activity [22] of the same compound?
A: Its Activity is 35%.

Q: And the Activity [23]?
A: Its Activity is 17%.

Q: What about the Activity [24] of the same compound?
A: The Activity was 21%.

Q: What about the Activity [25] of the same compound?
A: Its Activity is less than 5%.

Q: What about the Activity [26] of the same compound?
A: Its Activity is less than 5%.

Q: What about the Activity [27] of the same compound?
A: Its Activity is less than 5%.

Q: What about the Activity [28] of the same compound?
A: Its Activity is less than 5%.

Q: And the Activity [29]?
A: The Activity was less than 5%.

Q: And the Activity [30]?
A: Its Activity is less than 5%.

Q: And the Activity [31]?
A: Its Activity is less than 5%.

Q: What about the Activity [32] of the same compound?
A: Its Activity is less than 5%.

Q: What about the Activity [33] of the same compound?
A: The Activity was less than 5%.

Q: What about the Activity [34] of the same compound?
A: The Activity was less than 5%.

Q: And the Activity [35]?
A: Its Activity is less than 5%.

Q: And the Activity [36]?
A: The Activity was less than 5%.

Q: What about the Activity [37] of the same compound?
A: Its Activity is “Active”.

Q: And the Activity [38]?
A: Its Activity is “Active”.

Q: What about the Activity [39] of the same compound?
A: The Activity was “Active”.

Q: What about the Activity [40] of the same compound?
A: Its Activity is “Active”.

Q: What about the Activity [41] of the same compound?
A: Its Activity is “Active”.

Q: What about the Activity [42] of the same compound?
A: The Activity was “Active”.
